{
  "source": "patent US20260315462A1",
  "about": "“METHODS OF TREATING RELAPSING MULTIPLE SCLEROSIS USING AN INHIBITOR OF BRUTON'S TYROSINE KINASE” (Genentech, Inc., priority 2023, published 2026)",
  "assay_type_in_all_cases": "in vivo, human",
  "key": {"[1]": {"assay": "Fenebrutinib concentration in CSF and plasma after 12 weeks of continuous administration (exploratory endpoint)", "from_the_text": "(§1) Exploratory Endpoints: Exploratory endpoints included the total number of new T1-hypointense lesions on MRI at weeks 4, 8, and 12; the fenebrutinib concentration in CSF collected at baseline and at or after Week 12; and plasma pharmacokinetics.\nResults: Exploratory Endpoint-Evaluation of CSF: Cerebrospinal samples (CSF) were taken from 11 patients following 12 weeks of continuous fenebrutinib administration. A blood plasma sample was taken at the same time for 4 of the 11 patients. The concentration of fenebrutinib in CSF at 12 Weeks was evaluated, and presented in FIG. 5 in comparison to the IC50 of fenebrutinib (active inhibitory threshold) and the IC90 of fenebrutinib (maximal inhibitory threshold) as evaluated in different in vitro assays. From the figure, (a) the mean fenebrutinib CSF concentration is following 12 weeks of continuous fenebrutinib administration; (1) the data for CD63 and CD69 assays was previously presented as Weber M S, et al. at AAN 2021 Virtual Annual Meeting, April 17-22. (P15.091); and (2) the data for the phospho-BTK assay was previously presented in Keaney J, et al. J Neuroimmune Pharmacol 2019; 14:448-461. Analysis of fenebrutinib concentration in CSF, plasma, and the ratio for the four patients for which a plasma sample was taken is provided in Table 11.\nCD63 is a myeloid lineage cell activation marker; CD69 is a B-cell activation marker; the phospho-BTK assay evaluates target engagement through inhibition of anti-IgM induced BTK Y223 autophosphorylation in human whole blood. Procedures for performing these three assays may be found in Crawford J J, et al. J Med Chem 2018; 6:2227-2245. Fenebrutinib has a dual mechanism of action, inhibiting both B-cell and myeloid lineage cell activation."}, "[2]": {"test_system": "new gadolinium-enhancing T1 (T1Gd+) lesions on brain MRI", "assay": "New gadolinium-enhancing T1 (T1Gd+) lesions on brain MRI, Phase II RMS study (primary endpoint)", "from_the_text": "(§2) This Phase II study was undertaken to evaluate the effect of fenebrutinib on brain magnetic resonance imaging (MRI) in participants with RMS. Participants were randomized to receive either fenebrutinib or placebo. In addition to MRI evaluations, participants were also monitored for other clinical outcomes of disease, including disability progression and MS relapse, as described more fully below.\n(§3) Study Design: This clinical trial comprised a double-blind treatment (DBT) phase, where participants were randomized in a 2:1 ratio to receive either 200 mg BID oral fenebrutinib or non-active placebo, administered for 12 weeks. Participants were directed to self-administer two 100 mg tablets in the morning and two 100 mg tablets in the evening by mouth, for a total dose of 400 mg of fenebrutinib (or placebo) every day.\n(§4) A total of 109 adults aged 18-55 with RMS were enrolled in the study: 73 in the fenebrutinib arm, and 36 in the placebo arm. […] Accordingly, the analysis of outcome for the double blind phase of the study included 70 patients in the fenebrutinib arm, and 36 patients in the placebo arm.\nMRI Measurements: The primary efficacy endpoint for this study was the total number of new gadolinium-enhancing T1 (T1Gd+) lesions on brain MRI measured at Weeks 4, 8, and 12 of administration. The secondary efficacy outcomes were (1) the total number of new or enlarging T2-weighted lesions on brain MRI measured at Weeks 4, 8, and 12, and (2) the proportion of participants free from any new Gd-enhancing T1 lesions and new or enlarging T2-weighted lesions observed on brain MRI at Weeks 4, 8, and 12. Radiologic evaluation for the primary efficacy parameter was performed using a standardized MRI protocol at screening, and at Weeks 4, 8, and 12 for each participant. […]\nResults: Primary Endpoint (Total Number of New T1 Gd+ Lesions at Weeks 4, 8, and 12, combined): The primary endpoint of this study was met. In the treatment arm (n=70), a 69% relative reduction in new T1 Gd+ lesions was observed, compared to placebo, with a p value of 0.0022. FIG. 2 provides bar graphs illustrating some of the data in these tables, and providing additional analyses. In this figure, the large arrows indicate the relative reduction (95% confidence interval) of lesions. The proportion of patients with new T1 Gd+ lesions is the number of participants that have a new lesion at that specific visit alone divided by the number of participants with a scan at that specific visit alone at the indicated week. […] There was a 90% reduction and only 3.2% of patients with new T1 Gd+ Lesions lesions at Week 12."}, "[3]": {"test_system": "new T1-hypointense lesions on MRI", "assay": "New T1-hypointense lesions on MRI, Phase II RMS study (exploratory endpoint)", "from_the_text": "as §2, §3, §4, §1\nResults: Exploratory Endpoint-Hypointense T1 Lesions: The number of T1 hypointense lesions was evaluated at Week 4, 8, and 12 as an exploratory endpoint. […] FIG. 4 provides bar graphs illustrating some of the data in this table and providing additional analyses. In this figure, the large arrows indicate the relative reduction (95% confidence interval) of lesions. The proportion of patients with new T1 hypointense lesions is the number of participants that have a new lesion at that specific visit alone divided by the number of participants with a scan at that specific visit alone at the indicated week. There was a 58% reduction and only 3.2% of patients with new hypointense T1 lesions at Week 12."}, "[4]": {"conditions": "Week 12, participants with a new lesion at that visit divided by participants with a scan at that visit"}},
  "note": "Like-named read-outs stand apart in the source and are kept apart here.",
  "data": [
    {"molecule": "C[C@H]1CN(C2COC2)CCN1c1ccc(Nc2cc(-c3ccnc(N4CCn5c(cc6c5CC(C)(C)C6)C4=O)c3CO)cn(C)c2=O)nc1", "note": "[Fenebrutinib, (S)-2-(3′-(hydroxymethyl)-1-methyl-5-((5-(2-methyl-4-(oxetan-3-yl)piperazin-1-yl)pyridin-2-yl)amino)-6-oxo-1,6-dihydro-[3,4′-bipyridin]-2′-yl)-7,7-dimethyl-2,3,4,6,7,8-hexahydro-1H-cyclopenta[4,5]pyrrolo[1,2-a]pyrazin-1-one]", "values": [
      {"measurement": "presence in CSF relative to in vitro activity", "setting": "[1]; after 12 weeks of continuous administration", "result": "present in the CSF at levels sufficient to reduce activation of B cells and microglia progenitor cells in vitro"},
      {"measurement": "concentration at 2016 h", "setting": "[1]; human, csf, po, 200 mg, 11 patients, following 12 weeks of continuous administration, read-out: mean fenebrutinib CSF concentration", "result": 43.1, "unit": "ng/mL"},
      {"measurement": "concentration at 2016 h", "setting": "[1]; human, csf, po, 200 mg, n = 4 patients, after 12 weeks of continuous administration, 200 mg BID oral, read-out: CSF concentration, Median (min, max)", "result": 50.2, "unit": "ng/mL"},
      {"measurement": "Kp at 2016 h", "setting": "[1]; human, csf, po, 200 mg, n = 4 patients, after 12 weeks of continuous administration, total plasma, read-out: CSF:plasma ratio, Median (min, max)", "result": 0.061},
      {"measurement": "concentration at 2016 h", "setting": "[1]; human, plasma, po, 200 mg, n = 4 patients, after 12 weeks of continuous administration, 200 mg BID oral, read-out: Total plasma concentration, Median (min, max)", "result": 691, "unit": "ng/mL"},
      {"measurement": "Number of New T1 Gd+ Lesions, Mean (SD), Week 4", "setting": "[2]; 200 mg BID oral, Week 4, n = 70, min-max 0-4, placebo 0.389 (0.871)", "result": "0.343 (0.849)"},
      {"measurement": "Number of New T1 Gd+ Lesions, Mean (SD), Week 8", "setting": "[2]; 200 mg BID oral, Week 8, n = 67, min-max 0-3, placebo 0.441 (0.960)", "result": "0.045 (0.367)"},
      {"measurement": "Number of New T1 Gd+ Lesions, Mean (SD), Week 12", "setting": "[2]; 200 mg BID oral, Week 12, n = 63, min-max 0-1, placebo 0.273 (0.674)", "result": "0.032 (0.177)"},
      {"measurement": "Total Number of New T1Gd+ Lesions", "setting": "[2]; 200 mg BID oral, Weeks 4, 8, and 12 combined, N = 70, 201 scans, placebo 38", "result": 29},
      {"measurement": "New T1Gd+ Lesion rate, adjusted", "setting": "[2]; 200 mg BID oral, Weeks 4, 8, and 12 combined, Negative Binomial regression model, placebo 0.245", "result": 0.077},
      {"measurement": "New T1Gd+ Lesion rate, unadjusted", "setting": "[2]; 200 mg BID oral, Weeks 4, 8, and 12 combined, total lesions divided by total number of scans, placebo 0.369", "result": 0.144},
      {"measurement": "proportion of patients with new T1 Gd+ lesions, Week 12", "setting": "[2]; [4]", "result": 3.2, "unit": "%"},
      {"measurement": "patients with new T1 Gd+ lesions after week four", "setting": "[2]; after week four of treatment", "result": "Few patients had new lesions after week four of treatment"},
      {"measurement": "Relative Reduction of total number of new T1 Gd+ lesions, Week 4", "setting": "[2]; vs placebo, Week 4, 95% CI −92%, 68%", "result": 22, "unit": "%"},
      {"measurement": "Relative Reduction of total number of new T1 Gd+ lesions, Week 8", "setting": "[2]; vs placebo, Week 8, 95% CI 65%, 98%", "result": 92, "unit": "%"},
      {"measurement": "Relative Reduction of total number of new T1 Gd+ lesions, Week 12", "setting": "[2]; vs placebo, Week 12, 95% CI 52%, 98%", "result": 90, "unit": "%"},
      {"measurement": "Rate Ratio, adjusted (new T1Gd+ lesions)", "setting": "[2]; vs placebo, Weeks 4, 8, and 12 combined, 95% CI (0.149, 0.658)", "result": 0.313},
      {"measurement": "Relative Reduction in new T1 Gd+ lesions", "setting": "[2]; vs placebo, Weeks 4, 8, and 12 combined, 95% CI (34%, 85%), p-value 0.0022", "result": 69, "unit": "%"},
      {"measurement": "Relative Reduction of total number of new T1 Gd+ lesions, Weeks 8 and 12", "setting": "[2]; vs placebo, Weeks 8 and 12", "result": 92, "unit": "%"},
      {"measurement": "effect on T1 hypointense lesions", "setting": "[3]; Week 4, 8, and 12, compared to placebo", "result": "reduced T1 hypointense lesions at all three time points"},
      {"measurement": "proportion of patients with new T1 hypointense lesions, Week 12", "setting": "[3]; [4]", "result": 3.2, "unit": "%"},
      {"measurement": "patients with new T1 hypointense lesions after Week 4", "setting": "[3]; after Week 4 of treatment, compared to placebo", "result": "few patients had new lesions after Week 4 of treatment"},
      {"measurement": "Relative Reduction of T1 hypointense lesions, Week 4", "setting": "[3]; vs placebo, Week 4, 95% CI −106%, 87%", "result": 48, "unit": "%"},
      {"measurement": "Relative Reduction of T1 hypointense lesions, Week 8", "setting": "[3]; vs placebo, Week 8, 95% CI −62%, 92%", "result": 64, "unit": "%"},
      {"measurement": "Relative Reduction of T1 hypointense lesions, Week 12", "setting": "[3]; vs placebo, Week 12, 95% CI −131%, 92%", "result": 58, "unit": "%"},
      {"measurement": "Relative Reduction of T1 hypointense lesions, Weeks 4, 8, and 12", "setting": "[3]; vs placebo, Weeks 4, 8, and 12, 95% CI −12%, 89%", "result": 64, "unit": "%"}
    ]}
  ]
}
